Laboratory results: patent publication US20240398738A1, “MANIPULATION OF THE RETINOIC ACID SIGNALING PATHWAY” (THE REGENTS OF THE UNIVERSITY OF CALIFORNIA, priority 2017, published 2024)
“Also recorded” adds a separate entry of the source.

Assays:
RGCs in rd1 retina = assay: MEA recording of RGC spontaneous activity in darkness, rd1 retina; type: in vivo, mouse
Procedure: (§1) Intravitreal Injections. Before injection, mice were anesthetized with isoflurane (2%) and their pupils were dilated with tropicamide (1%) and phenylephrine (2.5%). Proparacaine (0.5%) was used as a topical analgesic. Genteal was applied under a glass coverslip to keep the cornea lubricated. An incision was made through the sclera below the ora serrata with a 30G needle and ˜1 μl of solution was injected into the vitreous with a blunt-ended 33G Hamilton syringe. After injection, the antibiotic tobramycin (0.3%) was applied to the eye. Final drug concentrations after intravitreal injection were: all-trans retinoic acid (ATRA, 100 nM), liarozole (100 μM), diethylaminobenzaldehyde (DEAB, 20 μM), citral (50 μM), BMS-493 (500 nM), and retinaldehyde (1 μM). The above values correspond to the final concentration in the eye after injecting 1 μl of drug accounting for a 5-fold dilution. An injection of PBS including 1% DMSO was used as vehicle control.
Multi Electrode Array Recordings. For extracellular recordings, a flat-mounted retina was placed ganglion cell layer down onto a 60-electrode Multi-Electrode Array (MEA 1060-2-BC, Multi-Channel Systems). […] Extracellular spikes were high-pass filtered at 200 Hz and digitized at 20 kHz and were counted when exceeding 4 SD from the mean background voltage signal. Typically, each electrode recorded spikes from one to three individual RGCs. […]

RGCs in rd10 retina = assay: MEA recording of light-flash responses in partially degenerated rd10 retina; type: in vivo, mouse
Procedure: as §1
Multi Electrode Array Recordings. For extracellular recordings, a flat-mounted retina was placed ganglion cell layer down onto a 60-electrode Multi-Electrode Array (MEA 1060-2-BC, Multi-Channel Systems). After mounting the retina, photoswitches were applied for 30 min, followed by a 15 min wash. BENAQ was applied at a concentration of 100 μM and QAQ at 300 μM. A solution containing a mixture of neurotransmitter receptor blockers isolated RGCs from synaptic inputs: (in μM) 10 AP4, 40 DNQX, 30 AP5, 10 SR-95531, 50 TPMPA, 10 strychnine, and 50 tubocurarine. Extracellular spikes were high-pass filtered at 200 Hz and digitized at 20 kHz and were counted when exceeding 4 SD from the mean background voltage signal. Typically, each electrode recorded spikes from one to three individual RGCs. Principal component analysis of the spike waveforms was used for sorting spikes generated by individual cells (Offline Sorter, Plexon). Stimulation light was generated from a mercury arc lamp. Unfiltered broad spectrum light was used for BENAQ-treated retinas. Narrow band optical filters (Chroma) were used to deliver alternating intervals of 380 nm and 500 nm for stimulation of QAQ-treated as described previously (5,12). The Photoswitch Index (5) (PI) was established for individual retinas in light/darkness for treatment with BENAQ or in 380 nm/500 nm light for treatment with QAQ (11,12).
Data Analysis and Statistics. Unless otherwise stated, all statistical significance (p-value) calculations were performed using the two-tailed unpaired Student's t test. Results with p<0.05 were considered significant. P-values are: *<0.05, **<0.01, ***<0.001. Pairwise comparisons for non-parametric data employed the Wilcoxon Rank Sum Test or the Mann-Whitney U-test. In the case where ANOVA was employed, bootstrapping was used to account for unequal group sizes and a Tukey HSD test was employed as a post-hoc test to define which comparisons and interactions produced statistically significant changes. A modified Thompson-Tau method was employed for the detection of outliers. Non-normal data distributions were analyzed using the Kruskal-Wallis ANOVA with a Dunn's post hoc test. Sigmoidal curves were fit using OriginPro™ and the output curves for vehicle and BMS-493 are y=START+(END−START)*x^n/(k^n+x^n).
Injections. Intravitreal injections: Adult mice and rats were intravitreally injected with drugs or viruses. Before injection, animals were anesthetized with isoflurane (2%) and their pupils were dilated with tropicamide (1%) and phenylephrine (2.5%). Proparacaine (0.5%) was used as a topical analgesic. Genteal was applied under a glass coverslip to keep the cornea lubricated. An incision was made through the sclera below the ora serrata with a 30G needle. Solutions were injected into the vitreous with a blunt-ended 33G Hamilton syringe. After injection, the antibiotic tobramycin (0.3%) was applied to the eye. […]

SMILES: CC1(C)CC=C(C#Cc2ccccc2)c2cc(/C=C/c3ccc(C(=O)O)cc3)ccc21 [BMS-493]
- spontaneous firing of rd1 RGCs (mean Firing Rate) (RGCs in rd1 retina; rd1, 3-7 days after a single intravitreal injection of BMS-493, control 5.13±0.74 Hz): 2.67±0.33 Hz
- spontaneous firing rates versus controls, in words (RGCs in rd1 retina; rd1 retina, BMS-493 0.5 μM 3-7 days before, or AAV2-RARDN injected at P30, recorded at P90): significantly lower
- I50, midpoint of the intensity vs. response curve (RGCs in rd10 retina; 6-week-old rd10, 3-7 days after intravitreal injection, vehicle eye 1.73 μW): 0.35 μW
- Max, peak response (ratio of firing rate in the light:dark) (RGCs in rd10 retina; 6-week-old rd10, 3-7 days after intravitreal injection, vehicle eye 3.68): 4.77
- RGC response to a flash of dim light, in words (RGCs in rd10 retina; rd10, 50 ms flash, 0.2 μW, vehicle-treated retinas showed no response): shows a response in BMS-493 injected animals but not vehicle injected mice; also recorded: transient increase in RGC firing in response to a brief flash (50 ms) of dim light
- background (spontaneous) firing in darkness, in words (RGCs in rd10 retina; rd10, BMS-493-injected eye): reduced spontaneous activity; also recorded: decrease in the background firing rate in darkness
- response threshold (light intensity) (RGCs in rd10 retina; rd10, BMS-493-injected eye, vehicle-injected 0.85 μW): 0.2 μW
- light response compared between drug-injected and vehicle-injected eye of each animal, in words (RGCs in rd10 retina; rd10, n=5, paired): significantly increased light response in every subject; also recorded: observed in all 5 animals tested; also recorded: enhanced the light response in all mice tested
- shift of the intensity-response curve, in words (RGCs in rd10 retina; rd10, range of light intensities, versus vehicle): leftward and upward shift of fitted sigmoidal curves; also recorded: increase in sensitivity and peak response to light
